# Test results reported in patent US11352350B2, “IRAK degraders and uses thereof” (Kymera Therapeutics, Inc., priority 2018, dated 2022).
# Like-named read-outs stand apart in the source and are kept apart here.
# Columns and labels:
# [1] = biological target: IRAK4 (Homo sapiens (Human), UniProt Q9NWZ3); experiment: IRAK4 MSD degradation in OCI-LY10; format: cell-based
# In short: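 OCI-LY10 cells treated with 8-point 1:3 dilutions (top 1 to 10 μM final) for 4 to 24 h at 37° C. Lysate IRAK4 measured by MSD sandwich immunoassay (2H9 capture, Y279 detection, SULFO-TAG anti-rabbit). DC50 from three-parameter logistic fit.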
# [2] = system: OCI-LY10; experiment: CTG Cell Viability Assay - OCI-LY10; format: cell-based, human; details: Homo sapiens, OCI-Ly10, 96 h, OCI-LY10, 4 days; read-out: CTG Cell Viability Assay - OCI-LY10: Average external-IC50
# In short: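 OCI-LY10 cells exposed to 9-dose, 1:3 dilutions from 10 μM top (0.2% DMSO) for 4 days at 37° C, 5% CO2. Viability by CellTiter-Glo luminescence; IC50 from three-parameter logistic fit.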
# [3] = OCI-LY10, 4 hrs, MSD, read-out: IRAK4 MSD degradation in OCI-LY10 at 4 hrs: Average external-Abs DC50
# [4] = OCI-LY10, 24 hrs, MSD, read-out: IRAK4 MSD degradation in OCI-LY10 at 24 hrs: Average external-Abs DC50
# IRAK4, sequence (Q9NWZ3 whole entry): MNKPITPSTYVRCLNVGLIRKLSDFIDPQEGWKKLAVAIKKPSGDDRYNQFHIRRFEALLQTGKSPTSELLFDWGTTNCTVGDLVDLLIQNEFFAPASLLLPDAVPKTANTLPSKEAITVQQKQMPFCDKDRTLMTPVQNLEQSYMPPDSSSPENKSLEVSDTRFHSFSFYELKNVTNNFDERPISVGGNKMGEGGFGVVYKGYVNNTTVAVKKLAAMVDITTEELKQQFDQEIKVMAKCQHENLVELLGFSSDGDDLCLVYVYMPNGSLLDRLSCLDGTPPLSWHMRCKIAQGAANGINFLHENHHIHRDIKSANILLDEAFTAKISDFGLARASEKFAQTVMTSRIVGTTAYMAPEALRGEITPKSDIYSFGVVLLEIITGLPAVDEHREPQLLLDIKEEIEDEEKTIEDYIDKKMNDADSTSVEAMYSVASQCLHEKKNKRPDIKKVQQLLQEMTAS
Structure (SMILES),"DC50 [1, 3]","DC50 [1, 4]",IC50 [2],"DC50 ([1]; OCI-LY10, 4 hrs, read-out: IRAK4 MSD degradation in OCI-LY10 at 4 hrs: DC50)","DC50 ([1]; OCI-LY10, 24 hrs, read-out: IRAK4 MSD degradation in OCI-LY10 at 24 hrs: DC50)"
CN1C(=O)CCC(N2C(=O)c3cccc(NCC4CC5(CCN(C[C@H]6CC[C@H](n7cc(NC(=O)c8cnn9ccc(N%10C[C@H]%11C[C@@H]%10CO%11)nc89)c(C(F)F)n7)CC6)CC5)C4)c3C2=O)C1=O (some centres unmarked) [I-323],100 to 1000 nM,> 1000 nM,> 1000 nM,–,–
Cn1c(=O)n(C2CCC(=O)NC2=O)c2ccc(CCCOC3CCN(C[C@H]4CC[C@H](n5cc(NC(=O)c6coc(-c7ccnc(NCC8CC8)c7)n6)c(C(F)F)n5)CC4)CC3)cc21 (some centres unmarked) [I-118],< 10 nM,–,> 1000 nM,–,–
Cn1c(=O)n(C2CCC(=O)NC2=O)c2ccc(CN3CCN(CCO[C@H]4C[C@H](N(C)C[C@H]5CC[C@H](n6cc(NC(=O)c7coc(-c8ccnc(NCC9CC9)c8)n7)c(C(F)F)n6)CC5)C4)CC3)cc21 (some centres unmarked) [I-252],< 10 nM,–,100 to 500 nM,–,–
CN(CCN(C)CC1CCC(n2cc(NC(=O)c3cnn4ccc(N5C[C@H]6C[C@@H]5CO6)nc34)c(C(F)F)n2)CC1)Cc1ccc(COc2cccc3c2C(=O)N(C2CCC(=O)NC2=O)C3=O)cc1 (some centres unmarked) [I-335],100 to 1000 nM,–,500 to 1000 nM,–,–
O=C1CCC(N2C(=O)c3cccc(NCC4CC5(CCN(Cc6ccc(-n7cc(NC(=O)c8cnn9ccc(N%10C[C@H]%11C[C@@H]%10CO%11)nc89)c(C(F)F)n7)cc6)CC5)C4)c3C2=O)C(=O)N1 (some centres unmarked) [I-462],–,–,< 50 nM,100 to 1000 nM,> 1000 nM
CN(CC1CCN(c2ccc3c(c2)n(C)c(=O)n3C2CCC(=O)NC2=O)CC1)C[C@H]1CC[C@H](n2cc(NC(=O)c3coc(-c4ccnc(NCC5CC5)c4)n3)c(C(F)F)n2)CC1 (some centres unmarked) [I-236],< 10 nM,–,> 1000 nM,–,–
"CC([C@H]1CC[C@H](n2cc(NC(=O)c3coc(-c4ccnc(NCC5CC5)c4)n3)c(C(F)F)n2)CC1)N1CCC(OCCCc2cccc3c2n(C)c(=O)n3C2CCC(=O)NC2=O)CC1 (some centres unmarked) [I-301, 2-[2-(Cyclopropylmethylamino)-4-pyridyl]-N-[3-(difluoromethyl)-1-[4-[1-[4-[3-[1-(2,6-dioxo-3-piperidyl)-3-methyl-2-oxo-benzimidazol-4-yl]propoxy]-1-piperidyl]ethyl]cyclohexyl]pyrazol-4-yl] oxazole-4-carboxamide]",10 to 100 nM,–,< 50 nM,–,–
Cc1c[nH]c2ncnc(N[C@H]3CC[C@H](N4CCN(C(=O)COCCOCCOCCOCCCc5ccc6c(c5)n(C)c(=O)n6C5CCC(=O)NC5=O)CC4)CC3)c12 (some centres unmarked) [I-26],> 1000 nM,> 1000 nM,> 1000 nM,–,–
CN(CCCOCCCNc1cccc2c1C(=O)N(C1CCC(=O)NC1=O)C2=O)C[C@H]1CC[C@H](n2cc(NC(=O)c3coc(-c4ccnc(N[C@H]5CCCC[C@H]5O)c4)n3)c(C(F)F)n2)CC1 (some centres unmarked) [I-398],10 to 100 nM,10 to 100 nM,50 to 100 nM,–,–
CN(CCCc1cccc2c1n(C)c(=O)n2C1CCC(=O)NC1=O)C[C@H]1CC[C@H](n2cc(NC(=O)c3coc(-c4ccnc(NCC5CC5)c4)n3)c(C(F)F)n2)CC1 (some centres unmarked) [I-130],< 10 nM,–,> 1000 nM,–,–
CC[C@@H]1[C@H](F)C(=O)N[C@@H]1COc1ncc(C#CC2CCN(CCCOCCCc3cccc4c3n(C)c(=O)n4C3CCC(=O)NC3=O)CC2)c2cc(C(N)=O)c(OC)cc12 (some centres unmarked) [I-204],100 to 1000 nM,10 to 100 nM,> 1000 nM,–,–
CN(CCCN1CCN(c2cccc3c2C(=O)N(C2CCC(=O)NC2=O)C3=O)CC1)C[C@H]1CC[C@H](n2cc(NC(=O)c3cnn4ccc(N5CCOCC5)nc34)c(C(F)F)n2)CC1 (some centres unmarked) [I-225],10 to 100 nM,–,> 1000 nM,–,–
CN(Cc1ccc(-n2cc(NC(=O)c3coc(-c4ccnc(NCC5CC5)c4)n3)c(C(F)F)n2)cc1)C1CCN(Cc2cccc3c2n(C)c(=O)n3C2CCC(=O)NC2=O)CC1 (centres unmarked) [I-389],10 to 100 nM,10 to 100 nM,< 50 nM,–,–
Cn1c(=O)n(C2CCC(=O)NC2=O)c2ccc(CCCOCC3CCN(C[C@H]4CC[C@H](n5cc(NC(=O)c6cnn7ccc(N8CCNCC8)nc67)c(C(F)F)n5)CC4)CC3)cc21 (some centres unmarked) [I-163],< 10 nM,–,> 1000 nM,–,–
Cn1c(=O)n(C2CCC(=O)NC2=O)c2cccc(CCCOC3CCN(C[C@H]4CC[C@H](n5cc(NC(=O)c6cnn7ccc(N[C@@H]8CCCC[C@H]8O)nc67)c(C(F)F)n5)CC4)CC3)c21 (some centres unmarked) [I-293],10 to 100 nM,–,> 1000 nM,–,–
O=C1CCC(N2C(=O)c3cccc(NC4CCN(CCCNC[C@H]5CC[C@H](n6cc(NC(=O)c7cnn8ccc(N9CCOCC9)nc78)c(C(F)F)n6)CC5)CC4)c3C2=O)C(=O)N1 (some centres unmarked) [I-384],10 to 100 nM,–,< 50 nM,–,–
